Source: US7250441B2, “Carbazole and cyclopentaindole derivatives to treat infection with Hepatitis C virus” (priority 2004, dated 2007)

Biological target: T1, HCV RdRp NS5B d21BK (NS5B from the BK strain, genotype 1b) (Hepatitis C virus genotype 1b, UniProt P26663)
T1 construct: NS5B from the BK strain (genotype 1b) is expressed in E coli as a protein in which the 21 C-terminal amino acids are replaced; made in house; host or cells: E. coli
Experiment: Hepatitis C polymerase inhibition assay, radioactive nucleotide incorporation with filter capture
Type: biochemical
Source text: The ability of the compounds of formula (I) to inhibit Hepatitis C Polymerase was established by the following experimental procedure.
NS5B from the BK strain (genotype 1b) is expressed in E coli as a protein in which the 21 C-terminal amino acids are replaced with a short linker and a hexahistidine tag ([…]). The purified protein is mixed with radioactive nucleotides and allowed to replicate a heteropolymeric RNA substrate, primed by an endogenous short hairpin, resulting in an approximately 760 nt product. The radioactive product is captured on a filter and quantitated after removal of the unincorporated nucleotides.
(1) Compounds 10 μl at 10 μg/ml in 15% dimethylsulfoxide (DMSO)
When starting from 100 μg/ml compound stock in 1% DMSO, 5 μl 30% DMSO is dispensed per well. Next, 5 μl compound (100 μg/ml) is dispensed per well.
When starting from 50 μg/ml compound stock in 15% DMSO, 10 μl compound is added per well.
20 μl enzyme mix is added into each well of the assay plate. The compound and enzyme are incubated at room temperature for 15 minutes.
(3) Template mix (prepared in advance)
A tube of RNA (5 μg/tube stored in 75% ethanol and 0.3 M sodium acetate) is microcentrifuged for 20 minutes at 4° C. (one tube supplies 1-1.5 plates). Ethanol is removed from the tube by gently inverting the tube. The RNA is vacuum dried and re-suspended in 1 ml of DEPC water in a tightly capped tube. To dissolve RNA, the RNA solution is incubated on ice for ˜60 minutes and gently vortexed. It is spun briefly to ensure all RNA solution at the bottom of the tube before opening cap. The RNA solution is then gently transferred into a 5 ml or larger tube. Another 3 ml of DEPC water is added to obtain a total of 4 ml of volume.
The following volumes of reagents are added:
20 μl template mix per reaction is added (i.e. 20 ng of pOF per reaction or ˜3 nM)
(4) The reaction is incubated at room temperature (22-25° C.) for 2 hours.
(5) The reaction is quenched by adding 50 μl of 170 mM EDTA.
Final concentration of EDTA is 85 mM.
(6) The filters of Millipore multiscreen assay plate is pre-wet by adding 200 μl of 0.5 M sodium phosphate buffer, pH 7.0 into each well. This stands at room temperature for 2-3 minutes.
(7) The multiscreen filter plate is placed onto a Millipore Manifold under vacuum to allow buffer to flow through. After the vacuum is turned off, 80 μl of the reaction product is transferred into each well of the filter plate. This stands for 2-3 minutes prior to turning on the vacuum again to filter the reaction product.
(8) The vacuum is then removed. 200 μl of 0.5 M sodium phosphate buffer is added, pH 7.0, into each well. The vacuum is then turned on.
Step (8) is repeated three more times.
(9) Next the polypropylene bottom is removed, and the filter is spot dried with a paper towel. The filter plate is air-dried on a bench for 1 hour before adding 40 μl Super Mix scintillant. The top of the plate is sealed with a tape and the plate is placed into a Packard carrier or micro-beta carrier.
(10) The plate is counted using a Packard Topcount or micro-beta counter. Count (for example using Program 10) for ^33P in Top count or ^33P program in micro-beta.
The percent inhibition is calculated after background subtraction as a percent reduction of activity relative to the positive control (average value of the plate excluding the negative controls). For the primary screen hits were chosen as showing >75% inhibition.
See, Ferrari et al. 1999. J. Virology 73:1649-1654: “Characterization of soluble Hepatitis C virus RNA-dependent RNA polymerase expressed in E. coli and Takamizawa et al 1991” and J. Virology 65:1105-1113: “Structure and characterization of Hepatitis C virus genome isolated from human carriers,” both reference are hereby incorporated by reference.

T1 sequence (P26663 2420-2989): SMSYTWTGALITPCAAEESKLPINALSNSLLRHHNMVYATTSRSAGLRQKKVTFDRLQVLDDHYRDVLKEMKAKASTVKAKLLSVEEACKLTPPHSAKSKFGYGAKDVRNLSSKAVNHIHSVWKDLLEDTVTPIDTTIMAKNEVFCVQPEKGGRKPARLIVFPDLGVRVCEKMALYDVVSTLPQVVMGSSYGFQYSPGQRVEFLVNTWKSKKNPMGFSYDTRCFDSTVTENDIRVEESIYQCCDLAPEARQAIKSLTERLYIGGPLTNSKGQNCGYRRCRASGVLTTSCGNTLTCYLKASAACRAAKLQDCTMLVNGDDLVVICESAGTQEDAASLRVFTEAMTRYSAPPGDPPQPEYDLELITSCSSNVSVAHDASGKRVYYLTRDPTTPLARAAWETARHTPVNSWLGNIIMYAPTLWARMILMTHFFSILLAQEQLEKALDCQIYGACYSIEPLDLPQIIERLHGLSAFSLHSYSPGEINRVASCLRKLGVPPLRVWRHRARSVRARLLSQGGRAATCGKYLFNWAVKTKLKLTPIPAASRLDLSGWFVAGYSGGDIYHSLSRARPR

| Compound | IC50 [µM] |
| --- | --- |
| CCCCC1(C(=O)O)CCc2c1[nH]c1c(C)cc(F)cc21 (stereo not drawn) [Example 7, 3-Butyl-7-fluoro-5-methyl-1,2,3,4-tetrahydro-cyclopenta[b]indole-3-carboxylic acid] | 9.1 |
| C=CCC1(CC(=O)O)CCCc2c1[nH]c1c(F)ccc(F)c21 (stereo not drawn) [Example 29, (1-Allyl-5,8-difluoro-2,3,4,9-tetrahydro-1H-carbazol-1-yl)-acetic acid] | 32 |
| CCCC1(C(=O)O)CCc2c1[nH]c1c(C)ccc(C#N)c21 (stereo not drawn) [Example 20, 8-Cyano-5-methyl-3-propyl-1,2,3,4-tetrahydro-cyclopenta[b]indole-3-carboxylic acid] | 4.7 |
| C=CCC1(C(=O)O)CCc2c1[nH]c1c(F)ccc(C#N)c21 (stereo not drawn) [Example 14, 3-Allyl-8-cyano-5-fluoro-1,2,3,4-tetrahydro-cyclopenta[b]indole-3-carboxylic acid] | 14.5 |
| CCCC1(C(=O)O)CCc2c1[nH]c1c(F)ccc(C#N)c21 (stereo not drawn) [Example 21, 8-Cyano-5-fluoro-3-propyl-1,2,3,4-tetrahydro-cyclopenta[b]indole-3-carboxylic acid] | 8.1 |
| CCCCC1(C(=O)O)CCc2c1[nH]c1c(C)cc(F)c(C#N)c21 (stereo not drawn) [Example 17, 3-Butyl-8-cyano-7-fluoro-5-methyl-1,2,3,4-tetrahydro-cyclopenta[b]indole-3-carboxylic acid] | 1.5 |
| CCCC1(CC(=O)O)CCCc2c1[nH]c1c(F)ccc(C#N)c21 (stereo not drawn) [Example 32, (5-Cyano-8-fluoro-1-propyl-2,3,4,9-tetrahydro-1H-carbazol-1-yl)-acetic acid] | 2 |
| CCCCC1(C(=O)O)CCc2c1[nH]c1c(F)ccc(Br)c21 (stereo not drawn) [Example 5, 8-Bromo-3-butyl-5-fluoro-1,2,3,4-tetrahydro-cyclopenta[b]indole-3-carboxylic acid] | 5.8 |
| CCCC1(C(=O)O)CCc2c1[nH]c1c(C)ccc(Br)c21 (stereo not drawn) [Example 11, 8-Bromo-5-methyl-3-propyl-1,2,3,4-tetrahydro-cyclopenta[b]indole-3-carboxylic acid] | 1.9 |
| C=CCC1(C(=O)O)CCc2c1[nH]c1c(Cl)ccc(Cl)c21 (stereo not drawn) [Example 1, 3-Allyl-5,8-dichloro-1,2,3,4-tetrahydro-cyclopenta[b]indole-3-carboxylic acid] | 1.2 |
| CCCCC1(C(=O)O)CCc2c1[nH]c1c(Cl)ccc(Cl)c21 (stereo not drawn) [Example 2, 3-Butyl-5,8-dichloro-1,2,3,4-tetrahydro-cyclopenta[b]indole-3-carboxylic acid] | 1.9 |
| C=CCC1(C(=O)O)CCc2c1[nH]c1c(F)ccc(Br)c21 (stereo not drawn) [Example 9, 3-Allyl-8-bromo-5-fluoro-1,2,3,4-tetrahydro-cyclopenta[b]indole-3-carboxylic acid] | 6.4 |
| C=CCC1(C(=O)O)CCc2c1[nH]c1c(C)cc(F)c(Br)c21 (stereo not drawn) [Example 10, 3-Allyl-8-bromo-7-fluoro-5-methyl-1,2,3,4-tetrahydro-cyclopenta[b]indole-3-carboxylic acid] | 3.2 |
| C=CCC1(CC(=O)O)CCCc2c1[nH]c1c(F)ccc(C#N)c21 (stereo not drawn) [Example 31, (1-Allyl-5-cyano-8-fluoro-2,3,4,9-tetrahydro-1H-carbazol-1-yl)-acetic acid] | 0.37 |
| C=CCC1(C(=O)O)CCc2c1[nH]c1c(C)ccc(C#N)c21 (stereo not drawn) [Example 18, 3-Allyl-8-cyano-5-methyl-1,2,3,4-tetrahydro-cyclopenta[b]indole-3-carboxylic acid] | 11 |
| CCCCC1(C(=O)O)CCc2c1[nH]c1c(C)cc(F)c(Br)c21 (stereo not drawn) [Example 6, 8-Bromo-3-butyl-7-fluoro-5-methyl-1,2,3,4-tetrahydro-cyclopenta[b]indole-3-carboxylic acid] | 2.1 |
| CCCCC1(C(=O)O)CCc2c1[nH]c1c(C)ccc(Br)c21 (stereo not drawn) [Example 4, 8-Bromo-3-butyl-5-methyl-1,2,3,4-tetrahydro-cyclopenta[b]indole-3-carboxylic acid] | 6.7 |
| CCCC1(C(=O)O)CCCc2c1[nH]c1c(C)ccc(C#N)c21 (stereo not drawn) [Example 28, 5-Cyano-8-methyl-1-propyl-2,3,4,9-tetrahydro-1H-carbazole-1-carboxylic acid] | 15 |
